Data taken from paper PMC8838590, “Recognition of Dimethylarginine Analogues by Tandem Tudor Domain Protein Spindlin1” (Molecules, 2022).
Starred links: 1 amine or outer side, 2 acyl side, 3 side chain; linkers in the order of their positions; H or OH if unused. Non-standard residues stand in square brackets, D forms with d. Residues, ends and D or L forms follow the SMILES beside them. Groups on a side chain read outwards from the residue. X3 = N=C(NCCC[C@H](N[*:1])C(=O)[*:2])N1CCCCC1; X2 = CCN(CC)C(=N)NCCC[C@H](N[*:1])C(=O)[*:2]; X4 = N=C(NCCC[C@H](N[*:1])C(=O)[*:2])N1CCCC1; X5 = CN(C)C(=N)NCCCC[C@H](N[*:1])C(=O)[*:2]; X6 = CCN(C)C(=N)NCCC[C@H](N[*:1])C(=O)[*:2]; X1 = CN(C)C(=N)NCC[C@H](N[*:1])C(=O)[*:2]; Lys(Me3) = C[N+](C)(C)CCCC[C@H](N)C(=O)O; Orn = NCCC[C@H](N)C(=O)O; CO = O=C([*:1])[*:2]

How the values were obtained:
Spindlin1 (SPIN1_49-262) = target: T1, Spindlin1 (SPIN1_49-262) (Homo sapiens, UniProt Q9Y657); assay: Isothermal titration calorimetry of 15-mer H3K4me3X8 peptides binding to Spindlin1; conditions: ITC; for ΔH° / −TΔS°: 25.0 °C, 20 mM Tris, 100 mM NaCl pH 8.0, mean ± SD of 3 repeated ITC experiments
T1 construct: SPIN1_49-262 was expressed and purified as described previously; His tag; made in house; host or cells: E. coli BL21
T1 sequence (Q9Y657 49-262): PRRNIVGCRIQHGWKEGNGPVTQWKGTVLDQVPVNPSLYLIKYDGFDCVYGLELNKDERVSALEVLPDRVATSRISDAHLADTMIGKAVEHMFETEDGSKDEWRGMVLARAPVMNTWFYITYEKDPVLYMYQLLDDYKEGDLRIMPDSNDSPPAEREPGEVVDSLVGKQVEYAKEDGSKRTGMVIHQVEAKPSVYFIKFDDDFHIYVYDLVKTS
Experimental: Spindlin1 was dialysed against ITC buffer containing 100 mM NaCl and 20 mM Tris HCl buffer (pH 8.0).
SPIN1_49-262 was expressed and purified as described previously. Briefly, His-tagged SPIN1 was expressed in E.coli strain BL21 at 37 °C until OD600 = 2.0. Protein expression was induced by the addition of 0.1 mM IPTG, followed by incubation at 18 °C overnight. Bacteria were harvested by centrifugation and subsequent resuspension of the pellet in buffer containing 50 mM Hepes pH 7.5, 500 mM NaCl, 10 mM Imidazole, 5% glycerol, 0.5 mM TCEP, and a protease inhibitor cocktail (Sigma, St. Louis, MO, USA). After lysis and centrifugation, His-tagged SPIN1 was affinity purified by Ni^2+-NTA-agarose chromatography (Cytiva, Marlborough, MA, USA) applying a gradient of imidazole. Subsequent size exclusion chromatography (Superdex 75, Cytiva) was performed with buffer containing 10 mM Hepes pH 7.5, 500 mM NaCl, 5% glycerol, and 0.5 mM TCEP.
Isothermal titration calorimetry was performed at 25 °C on a fully automated Microcal Auto-iTC200 (GE Healthcare Life Sciences, Marlborough, MA, USA). SPIN1_49-262 was dialysed against ITC buffer containing 20 mM Tris, 100 mM NaCl pH 8.0. Titrations were carried out with an initial injection of 0.5 μL, followed by 19 injections of 2 μL at a total concentration of 20 μM SPIN1_49-262 and 150-370 μM peptide. Fitting and analyses of the acquired titration curves were performed with Origin 6.0 (Microcal Inc., Northampton, MA, USA) using the One Set of Binding Sites model.

[1] = target: H3K4me3K9me3 peptide (Homo sapiens) (UniProt P68431); conditions: cited from earlier work
[2] = target: H3K4me3R8me2a 10-mer peptide (Homo sapiens) (UniProt P68431); conditions: cited from earlier work
[3] = target: H3K4me3R8me2s peptide (Homo sapiens) (UniProt P68431); conditions: cited from earlier work
[4] = target: H3K4me3R8me1 peptide (Homo sapiens) (UniProt P68431); conditions: cited from earlier work
[5] = target: H4K20me3 peptide (Homo sapiens) (UniProt P62805); conditions: cited from earlier work

Sequence of Spindlin1 (Q9Y657 whole entry): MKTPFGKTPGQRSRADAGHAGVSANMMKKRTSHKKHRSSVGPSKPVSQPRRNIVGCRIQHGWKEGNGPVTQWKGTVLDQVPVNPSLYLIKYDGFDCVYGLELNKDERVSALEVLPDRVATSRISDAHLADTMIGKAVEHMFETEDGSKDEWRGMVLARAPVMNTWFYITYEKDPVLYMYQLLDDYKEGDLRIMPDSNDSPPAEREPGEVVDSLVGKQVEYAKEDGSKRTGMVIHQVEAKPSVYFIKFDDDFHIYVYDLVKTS

ΔH° (Spindlin1 (SPIN1_49-262); SD) [kcal/mol]	−TΔS° (Spindlin1 (SPIN1_49-262); SD) [kcal/mol]	Molecule	other results
-20.9 ± 0.7	11.0 ± 0.7	C[C@H](N)C(=O)N[C@@H](CCCNC(=N)N)C(=O)N[C@H](C(=O)N[C@@H](CCCC[N+](C)(C)C)C(=O)N[C@@H](CCC(N)=O)C(=O)N[C@H](C(=O)N[C@@H](C)C(=O)N[C@@H](CCCCNC(=N)N(C)C)C(=O)N[C@@H](CCCCN)C(=O)N[C@@H](CO)C(=O)N[C@H](C(=O)NCC(=O)NCC(=O)N[C@@H](CCCCN)C(=O)N[C@@H](C)C(N)=O)[C@@H](C)O)[C@@H](C)O)[C@@H](C)O [H3K4me3hR8me2a] (H-ART[Lys(Me3)]QTA[X5]KSTGGKA-NH2)	–
-17.3 ± 1.9	7.0 ± 1.9	C[C@H](N)C(=O)N[C@@H](CCCNC(=N)N)C(=O)N[C@H](C(=O)N[C@@H](CCCC[N+](C)(C)C)C(=O)N[C@@H](CCC(N)=O)C(=O)N[C@H](C(=O)N[C@@H](C)C(=O)N[C@@H](CCCNC(=N)N(C)C)C(=O)N[C@@H](CCCCN)C(=O)N[C@@H](CO)C(=O)N[C@H](C(=O)NCC(=O)NCC(=O)N[C@@H](CCCCN)C(=O)N[C@@H](C)C(N)=O)[C@@H](C)O)[C@@H](C)O)[C@@H](C)O [H3K4me3R8me2a]	ΔH° (Spindlin1 (SPIN1_49-262)): -17.3 kcal/mol; −TΔS° (Spindlin1 (SPIN1_49-262)): 7.0 kcal/mol
-19.3 ± 0.6	9.3 ± 0.6	CCN(CC)C(=N)NCCC[C@H](NC(=O)[C@H](C)NC(=O)[C@@H](NC(=O)[C@H](CCC(N)=O)NC(=O)[C@H](CCCC[N+](C)(C)C)NC(=O)[C@@H](NC(=O)[C@H](CCCNC(=N)N)NC(=O)[C@H](C)N)[C@@H](C)O)[C@@H](C)O)C(=O)N[C@@H](CCCCN)C(=O)N[C@@H](CO)C(=O)N[C@H](C(=O)NCC(=O)NCC(=O)N[C@@H](CCCCN)C(=O)N[C@@H](C)C(N)=O)[C@@H](C)O [H3K4me3R8et2a] (H-ART[Lys(Me3)]QTA[X2]KSTGGKA-NH2)	–
-20.8 ± 0.6	11.2 ± 0.6	CCN(C)C(=N)NCCC[C@H](NC(=O)[C@H](C)NC(=O)[C@@H](NC(=O)[C@H](CCC(N)=O)NC(=O)[C@H](CCCC[N+](C)(C)C)NC(=O)[C@@H](NC(=O)[C@H](CCCNC(=N)N)NC(=O)[C@H](C)N)[C@@H](C)O)[C@@H](C)O)C(=O)N[C@@H](CCCCN)C(=O)N[C@@H](CO)C(=O)N[C@H](C(=O)NCC(=O)NCC(=O)N[C@@H](CCCCN)C(=O)N[C@@H](C)C(N)=O)[C@@H](C)O [H3K4me3R8etme] (H-ART[Lys(Me3)]QTA[X6]KSTGGKA-NH2)	–

The next lines start with the molecule.

Molecule	ΔH° (Spindlin1 (SPIN1_49-262); SD) [kcal/mol]	−TΔS° (Spindlin1 (SPIN1_49-262); SD) [kcal/mol]	other results
C[C@H](N)C(=O)N[C@@H](CCCNC(=N)N)C(=O)N[C@H](C(=O)N[C@@H](CCCC[N+](C)(C)C)C(=O)N[C@@H](CCC(N)=O)C(=O)N[C@H](C(=O)N[C@@H](C)C(=O)N[C@@H](CCCNC(=N)N1CCCCC1)C(=O)N[C@@H](CCCCN)C(=O)N[C@@H](CO)C(=O)N[C@H](C(=O)NCC(=O)NCC(=O)N[C@@H](CCCCN)C(=O)N[C@@H](C)C(N)=O)[C@@H](C)O)[C@@H](C)O)[C@@H](C)O [H3K4me3R8pip] (H-ART[Lys(Me3)]QTA[X3]KSTGGKA-NH2)	-20.9 ± 0.3	11.2 ± 0.1	–
C[C@H](N)C(=O)N[C@@H](CCCNC(=N)N)C(=O)N[C@H](C(=O)N[C@@H](CCCC[N+](C)(C)C)C(=O)N[C@@H](CCC(N)=O)C(=O)N[C@H](C(=O)N[C@@H](C)C(=O)N[C@@H](CCCNC(=N)N1CCCC1)C(=O)N[C@@H](CCCCN)C(=O)N[C@@H](CO)C(=O)N[C@H](C(=O)NCC(=O)NCC(=O)N[C@@H](CCCCN)C(=O)N[C@@H](C)C(N)=O)[C@@H](C)O)[C@@H](C)O)[C@@H](C)O [H3K4me3R8pyr] (H-ART[Lys(Me3)]QTA[X4]KSTGGKA-NH2)	-22.5 ± 0.4	13.0 ± 0.5	–
C[C@H](N)C(=O)N[C@@H](CCCNC(=N)N)C(=O)N[C@H](C(=O)N[C@@H](CCCC[N+](C)(C)C)C(=O)N[C@@H](CCC(N)=O)C(=O)N[C@H](C(=O)N[C@@H](C)C(=O)N[C@@H](CCNC(=N)N(C)C)C(=O)N[C@@H](CCCCN)C(=O)N[C@@H](CO)C(=O)N[C@H](C(=O)NCC(=O)NCC(=O)N[C@@H](CCCCN)C(=O)N[C@@H](C)C(N)=O)[C@@H](C)O)[C@@H](C)O)[C@@H](C)O [H3K4me3nR8me2a] (H-ART[Lys(Me3)]QTA[X1]KSTGGKA-NH2)	-16.9 ± 1.3	6.8 ± 1.2	–
Spindlin1 (from UniProt Q9Y657)	–	–	Kd [1]: 16 nM; Kd [2]: 45 nM; Kd [3]: 66 nM; Kd [4]: 139 nM; Kd [5]: 800 nM
C[C@H](N)C(=O)N[C@@H](CCCNC(=N)N)C(=O)N[C@H](C(=O)N[C@@H](CCCC[N+](C)(C)C)C(=O)N[C@@H](CCC(N)=O)C(=O)N[C@H](C(=O)N[C@@H](C)C(=O)N[C@@H](CCCNC(=O)N(C)C)C(=O)N[C@@H](CCCCN)C(=O)N[C@@H](CO)C(=O)N[C@H](C(=O)NCC(=O)NCC(=O)N[C@@H](CCCCN)C(=O)N[C@@H](C)C(N)=O)[C@@H](C)O)[C@@H](C)O)[C@@H](C)O [H3K4me3Cit8me2] (H-ART[Lys(Me3)]QTA[Orn]([CO-NMe2])KSTGGKA-NH2)	-15.6 ± 0.3	5.9 ± 0.2	ΔΔH° (Spindlin1 (SPIN1_49-262); relative to H3K4me3R8me2a): 1.7 kcal/mol; −TΔΔS° (Spindlin1 (SPIN1_49-262); relative to H3K4me3R8me2a): -1.1 kcal/mol
